Measurements from ChEMBL document CHEMBL4699480 (J Med Chem, 2020).
Calls of active or inactive are those of the source. The rule behind the calls is not given here.

How the values were obtained:
[1] = Inhibition of cell proliferation in human PD002 cells incubated for 72 hrs; type: functional
SiHa = experiment: Inhibition of DPAGT1 protein expression in human SiHa cells at 0.2 uM incubated for 24 hrs by Western blot analysis; type: functional, cell-based
[2] = biological target: T1, UDP-N-acetylglucosamine--dolichyl-phosphate N-acetylglucosaminephosphotransferase (Homo sapiens) (UniProt Q9H3H5); experiment: Inhibition of DPAGT1 in human SiHa cells assessed as reduction in snail protein expression incubated for 24 hrs by Western blot assay; type: cell-based
T1 sequence (whole entry): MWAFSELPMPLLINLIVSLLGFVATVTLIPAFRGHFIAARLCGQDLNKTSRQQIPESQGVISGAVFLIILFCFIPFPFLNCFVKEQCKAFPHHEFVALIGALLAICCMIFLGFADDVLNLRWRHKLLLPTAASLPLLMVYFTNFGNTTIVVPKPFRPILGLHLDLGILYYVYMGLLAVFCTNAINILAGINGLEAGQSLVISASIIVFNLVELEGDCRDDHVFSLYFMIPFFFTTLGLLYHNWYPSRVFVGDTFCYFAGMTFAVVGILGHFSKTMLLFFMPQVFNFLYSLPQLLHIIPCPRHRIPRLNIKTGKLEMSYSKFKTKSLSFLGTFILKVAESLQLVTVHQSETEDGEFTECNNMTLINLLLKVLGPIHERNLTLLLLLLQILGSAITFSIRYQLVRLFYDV

HCT-116 [3] = experiment: Cytotoxicity in human HCT-116 cells assessed as reduction in cell viability incubated for 72 hrs by MTT assay; type: functional, cell-based; conditions: HCT-116, 72 h
[4] = Inhibition of DPAGT1 protein expression in human HCT-116 cells assessed as DPAGT1 protein level at 0.1 to 20 uM incubated for 24 hrs by Western blot analysis; type: functional; design: scale not given: the % may be the effect or the level left; conditions: dose microM 0.1-20
[5] = Synergistic cytotoxicity in human PD002 cells assessed as FIC at 0.2 uM incubated for 72 hrs in presence of 0.020 uM paclitaxel by IncuCyte live cell analysis imaging system based assay; type: functional
PD002 = experiment: Inhibition of DPAGT1 protein expression in human PD002 cells at 0.2 uM incubated for 24 hrs by Western blot analysis; type: functional, cell-based
[6] = Inhibition of N-terminal 6x-His-tagged Hydrogenivirga-sp. 128-5-R1-1 MraY expressed in Escherichia coli NiCo21(DE3) incubated for 2 hrs by reversed-phase HPLC analysis
ASPC1 = experiment: Cytotoxicity in human ASPC1 cells assessed as reduction in cell viability incubated for 72 hrs by MTT assay; type: functional, cell-based; conditions: ASPC1, 72 h
KB = experiment: Cytotoxicity in human KB cells assessed as reduction in cell viability incubated for 72 hrs by MTT assay; type: functional, cell-based
HCT-116 [7] = experiment: Inhibition of E-cadherin protein expression in human HCT-116 cells at 0 to 2 uM incubated for 24 hrs by Western blot analysis; type: functional, cell-based; conditions: dose microM 0-2, time […]
[8] = Cytotoxicity in mouse L1210 cells assessed as reduction in cell viability incubated for 72 hrs by MTT assay; conditions: L1210, 72 h

In the case of CO[C@H]1[C@@H](O)[C@H](n2ccc(=O)[nH]c2=O)O[C@@H]1[C@@H](O[C@H]1OC(C(=O)NCc2ccc(N3CCC(Oc4ccc(OC(F)(F)F)cc4)CC3)cc2)=C[C@H](O)[C@@H]1O)C(N)=O, the “inhibition (INH)” value [1] is reported as 20%, the inhibition (SiHa) is reported as “Active” and the inhibition [2] is reported as “Active”. The IC50 (HCT-116 [3]) was 15 µM, the Activity [4] was 20% and the FIC [5] was 0.021. For the same compound, the inhibition (PD002) was “Active”, the IC50 [6] was 10.3 µM and the IC50 (ASPC1) was 25 µM. The IC50 (KB) was 35 µM, the inhibition (HCT-116 [7]) was “inactive” and the IC50 [8] was over 50 µM.
